Data reported in ChEMBL document CHEMBL1132796, “Multistep solution-phase parallel synthesis of spiperone analogues” (Bioorg Med Chem Lett, 2000).

Tests used:
[1] = target: T1, 5-hydroxytryptamine receptor 2A (Homo sapiens, UniProt P28223); assay: Compound was evaluated for its inverse agonist activity against 5-hydroxytryptamine 2A receptor; type: functional
[2] = target: T1, 5-hydroxytryptamine receptor 2A; assay: Compound was evaluated for its binding against 5-hydroxytryptamine 2A receptor

T1 sequence (P28223 whole entry): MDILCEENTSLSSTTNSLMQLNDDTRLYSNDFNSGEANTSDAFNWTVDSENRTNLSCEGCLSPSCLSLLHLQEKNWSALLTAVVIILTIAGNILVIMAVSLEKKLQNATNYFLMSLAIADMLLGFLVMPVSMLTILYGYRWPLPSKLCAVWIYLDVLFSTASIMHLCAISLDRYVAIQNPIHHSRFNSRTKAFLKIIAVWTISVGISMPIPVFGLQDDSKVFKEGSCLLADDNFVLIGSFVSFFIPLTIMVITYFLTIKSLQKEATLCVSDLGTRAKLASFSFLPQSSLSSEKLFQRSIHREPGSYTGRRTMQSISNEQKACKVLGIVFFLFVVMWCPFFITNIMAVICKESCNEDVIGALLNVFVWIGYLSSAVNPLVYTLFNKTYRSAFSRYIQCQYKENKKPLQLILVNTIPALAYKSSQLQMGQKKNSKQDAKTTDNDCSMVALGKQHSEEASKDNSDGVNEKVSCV

SMILES	IC50 [1]	Ki [2]
CC(C)NC(=O)N(C1CCCCCCC1)C1CCN(CCCOc2ccc(F)cc2)CC1	79.4 nM	–
CCC(=O)N(C1CCCCCCC1)C1CCN(CCCOc2ccc(F)cc2)CC1	12.6 nM	20 nM
